Publication PMC7034129, “C-2 phenyl replacements to obtain potent quinoline-based Staphylococcus aureus NorA inhibitors” (Journal of Enzyme Inhibition and Medicinal Chemistry, 2020)

How the values were obtained:
NorA efflux pump = target: T1, NorA efflux pump (Staphylococcus aureus, UniProt P0A0J7); assay: EtBr efflux assays; assay type: cell-based; settings: read-out: EtBr efflux inhibition
T1 construct: monitoring bacterial fluorescence of SA-1199B, overexpressing norA gene; endogenous in cells; host or cells: Staphylococcus aureus SA-1199B (norA+/GrlA mutation)
T1 sequence (P0A0J7 whole entry): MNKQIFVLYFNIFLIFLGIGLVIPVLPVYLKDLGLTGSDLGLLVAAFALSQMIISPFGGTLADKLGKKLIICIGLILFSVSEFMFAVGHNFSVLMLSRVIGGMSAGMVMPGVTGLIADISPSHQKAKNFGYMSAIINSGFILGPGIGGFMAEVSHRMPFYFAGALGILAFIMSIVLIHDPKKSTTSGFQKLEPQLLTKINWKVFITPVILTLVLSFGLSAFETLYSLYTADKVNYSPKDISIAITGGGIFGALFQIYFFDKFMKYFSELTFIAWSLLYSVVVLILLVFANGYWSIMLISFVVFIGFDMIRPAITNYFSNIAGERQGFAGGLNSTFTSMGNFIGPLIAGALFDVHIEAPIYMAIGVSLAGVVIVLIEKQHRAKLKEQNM
Protocol: The loss of EtBr from S. aureus SA-1199B was determined fluorometrically as previously described. The effect of various concentrations of tested compounds on the EtBr efflux of SA-1199B was compared to that in their absence, allowing the calculation of the percentage reduction in efflux.
Since EtBr is a known NorA substrate resulting fluorescent only when inside bacterial cells, monitoring bacterial fluorescence of SA-1199B, overexpressing norA gene, through a fluorimeter is a fast method to indirectly evaluate NorA inhibition. […] Indeed, we commonly consider as active NorA EPIs those compounds having an EtBr efflux inhibition ≥70%[17]^,[18].

S. aureus SA-1199B = assay type: cell-based, Staphylococcus aureus
Protocol: (§1) MICs assays were performed using broth microdilution method in 96 wells-microtiter plates, following the CLSI guidelines.
(§2) Chequerboard assays and time-kill curves were performed as previously described.

SA-1199B [1] = assay: Time-kill curves in combination with CPX; assay type: cell-based, Staphylococcus aureus; settings: 24 h
Protocol: as §2

SA-1199B [2] = assay: MIC evaluation of compound alone (broth microdilution); assay type: cell-based; settings: Staphylococcus aureus, read-out: antibacterial activity alone (MIC)
Protocol: as §1
The sum of both FIC values led to a FIC index (FICI) < 0.27 showing a significant synergistic effect as widely recognised for FICI values <0.5[40].

Haemolysis assays = assay type: cell-based
Protocol: Haemolysis assays were performed as previously described.
In order to evaluate the toxic effects of the derivative 37a, haemolysis assays were performed at scalar compound concentrations in comparison with the starting hit 1 (Figure 4).

[3] = test system: human leukemic monocyte cell line (THP-1); assay: Cell viability assay (ATP bioluminescence); settings: ratio between CC50 (THP-1) and minimum EPI concentration able to reduce by 4-fold CPX MIC
Protocol: (§3) THP-1 cells were grown in RPMI 1640 supplemented with 10% heat-inactivated foetal calf serum, 10,000 units of penicillin, and 10 µg of streptomycin/mL overnight to confluence. […] Cell viability was then evaluated using an ATP bioluminescence kit (Via Light kit; Cambrex). Results are expressed as 50% cytotoxic concentration (CC50). The CC50 was defined as the concentration required to reduce the cell number by 50% compared to that for the untreated controls. Each concentration was tested in triplicate.

[4] = Cell viability assay (ATP bioluminescence); settings: human
Protocol: as §3

SA-1199B [5] = assay: Membrane potential (polarisation) assays, BacLight kit, DiOC2(3); assay type: cell-based, Staphylococcus aureus; settings: 30 min
Protocol: Membrane potential assays were carried out by measuring the effect of 1 and 37a on the membrane potential using the BacLight Bacterial Membrane Potential Kit (Molecular Probes, Life Technologies) according to the manufacturer’s instructions. Briefly, SA-1199B was grown in MHB at 37 °C until reaching an OD600 of 0.6. Bacterial cells were then washed in PBS and diluted to 1 × 10^6 CFU/mL with filtered PBS (filter 0.22 µm) in flow cytometry tubes. Ten microliters of 3 mM 3,3-diethyloxacarbocyanine iodide (DiOC2(3) in DMSO) was added to each tube (final concentration 30 µM) and mixed. Then, 1 or 37a from a stock solution in DMSO (10 mg/mL) was added to reach final concentrations of 1, 5, and 10 µg/mL. As positive control, 10 µL of 500 µM carbonyl cyanide m-chlorophenylhydrazone (CCCP, final concentration 5 µM) was used to eradicate the proton gradient by eliminating the membrane potential. The samples were analysed after 30 min by measuring the fluorescence using a cytometer Attune NxT (ThermoFisher Scientific) with a laser emitting at 488 nm and collecting in the green and red channels. The red to green fluorescence ratio was determined and normalised against the emission from the DiOC2(3) blank tube having 1 ml of the bacterial suspension and a final concentration of DiOC2(3) of 30 µM. The results are presented as the percentage of depolarised membranes compared with the drug-free control.
Since efflux pumps need a proton gradient along the bacterial membrane, its modification/disruption can lead to an efflux inhibition. However, this effect cannot be related to a specific EPI activity; on the contrary, it relies on a non-specific interruption of the energy source (protons) that efflux pumps use to extrude their substrates by an antiport mechanism. A typical example of a compound inhibiting efflux pumps activity by this non-specific mechanism is represented by carbonyl cyanide m-chlorophenyl hydrazone (CCCP). […] Membrane polarisation was assessed by cytofluorimeter analysis using the fluorescent probe 3,3-diethyloxacarbocyanine iodide (DiOC2(3)) as its distribution is proton gradient-sensitive.

[6] = test system: S. aureus strain SA-1199B (norA+/GrlA mutation); assay: Synergistic assays: compounds at 25 µg/mL with scalar concentrations of CPX; assay type: cell-based, Staphylococcus aureus; settings: compound at 25 µg/mL
Protocol: as §1
(data not shown). […] Worthy of note, among the five active compounds, three were thiophene derivatives (35b, 36b and 37a) displaying their activity regardless of the position of the sulphur atom on the thiophene ring.

[7] = test system: S. aureus strain SA-1199 (norA wild-type); assay: Synergistic assay with CPX against norA wild-type strain; assay type: cell-based, Staphylococcus aureus; settings: compound at 25 µg/mL, scalar CPX
Protocol: as §1

Structure (SMILES): CCN(CC)CCOc1cc(-c2ccc(Cl)s2)nc2ccccc12.Cl [Compound 37a, (2-{[2–(5-Chloro-2-thienyl)quinolin-4-yl]oxy}ethyl)diethylamine hydrochloride]
- inhibition at 50 µM (NorA efflux pump): 74.3 ± 3.5%
- melting point: 189 to 191 °C
- concentration reducing CPX MIC, fold lower than own MIC (S. aureus SA-1199B): ≥ 64 fold
- FIC (MIC in combination/MIC alone) (S. aureus SA-1199B; 37a + CPX): < 0.0156
- FIC index (FICI) (S. aureus SA-1199B; 37a + CPX): < 0.27
- compound concentration reducing the CPX MIC by 4-fold (S. aureus SA-1199B; chequerboard with CPX): 0.39 mg/L
- CPX MIC in combination with compound (S. aureus SA-1199B; with 37a): 2.5 mg/L
- bactericidal activity of combination (time-kill) (SA-1199B [1]; 37a at 3.13 and 6.25 µg/mL + CPX at its MIC): strongly significant and definitely higher bactericidal activity than that shown by CPX alone
- bactericidal effect of combination (time-kill) (SA-1199B [1]; 37a at 3.13 and 6.25 µg/mL + CPX at ¼ MIC): the same bactericidal effect as CPX tested at its MIC
- MIC (SA-1199B [2]): > 25 mg/L
- haemolytic effect (Haemolysis assays; 20 µg/mL): about 10%
- haemolytic effect relative to starting hit 1 (Haemolysis assays; 20 µg/mL): 3 fold
- haemolytic activity (Haemolysis assays; concentrations ≤ 5 µg/mL): below 2%
- SI, selectivity index [3]: 16.2
- CC50 at 24 h [4]: 6.33 mg/L
- depolarised bacterial membrane (SA-1199B [5]; 1 µg/mL): about 20%
- depolarised bacterial membrane (SA-1199B [5]; 5 µg/mL): about 20%
- depolarised S. aureus membrane (SA-1199B [5]; 10 µg/mL): > 50%
- reduction of the CPX MIC [6]: 32 fold
- synergistic effect with CPX [7]: did not exhibit any significant synergistic effect
